Measurements taken from patent US11446254B2, “Drug carrier having self-assembled 3-D nucleic acid nanostructure” (KOREA INSTITUTE OF SCIENCE AND TECHNOLOGY, priority 2014, dated 2022).

Test system: SCC7 cells
Format: in vivo
Conditions: 18 days therapy
Experimental: A balb/c nude mouse (5 weeks old, male) was used as an experimental animal group, and a tumor was formed by subcutaneously inoculating SCC7 cells (1.0×10^6 cells suspended in the culture medium) into the left thigh of the mouse. When the tumor volume became approximately 50 mm^3, the tumor was used for the experiment.
For the selective therapy of cancer tissue, DOX was each loaded into L-Td55 and L-Td92, which are a carrier having cancer tissue selectivity.
The therapy experiment was performed by classifying the mice into total six groups (PBS, L-Td55, L-Td92, free DOX, DOX@L-Td55, and DOX@L-Td92), and 7 mice per group were used. Before the therapy was performed each time, the tumor volume and the mouse body weight were measured. In this case, the tumor volume was calculated by a method of (minor axis^2*major axis)/2. Each sample was injected into the caudal vein of the mice completely subjected to measurement (see Slide #2 for concentration), the therapy was performed once every three days, and the therapy was performed total 6 times.

COc1cccc2c1C(=O)c1c(O)c3c(c(O)c1C2=O)C[C@@](O)(C(=O)CO)C[C@@H]3O[C@H]1C[C@H](N)[C@H](O)[C@H](C)O1 [free DOX, doxorubicin]
Therapeutic effect: slight therapeutic effects
